Data reported in patent publication US20190308962A1, “FXR (NR1H4) Modulating Compounds” (GILEAD SCIENCES, INC., priority 2016, published 2019).

Legend:
[1] = molecular target: T1, FXR ligand binding domain (Homo sapiens, UniProt Q96RI1); assay: Mammalian one hybrid (M1H) Gal4 reporter gene assay in HEK293 cells; assay type: cell-based; details: Gal4-FXR-LBD, luciferase reporter, 16 h
T1 construct: expressed in transfected cells; host or cells: HEK293 (DSMZ), transient transfection with pCMV-BD-FXR-LBD, pFR-Luc and pRL-CMV
T1 sequence (Q96RI1 187-472 isoform Q96RI1-2): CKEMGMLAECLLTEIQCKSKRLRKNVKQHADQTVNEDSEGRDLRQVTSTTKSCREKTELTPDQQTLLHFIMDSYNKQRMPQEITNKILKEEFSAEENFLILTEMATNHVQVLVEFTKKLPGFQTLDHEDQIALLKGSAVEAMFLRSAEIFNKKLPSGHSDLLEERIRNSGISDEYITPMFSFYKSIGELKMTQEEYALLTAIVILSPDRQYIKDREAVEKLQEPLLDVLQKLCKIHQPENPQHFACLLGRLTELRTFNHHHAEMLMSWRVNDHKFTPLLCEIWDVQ
Method: Determination of a ligand mediated Gal4 promoter driven transactivation to quantify ligand binding mediated activation of FXR was performed as follows.
The cDNA part encoding the FXR ligand binding domain was cloned into vector pCMV-BD (Stratagene) as a fusion to the yeast GAL4 DNA binding domain under the control of the CMV promoter. The amino acid boundaries of the ligand binding domain were amino acids 187-472 of Database entry NM_005123 (RefSeq). The plasmid pFR-Luc (Stratagene) was used as the reporter plasmid, containing a synthetic promoter with five tandem repeats of the yeast GAL4 binding sites, driving the expression of the Photinus pyralis (American firefly) luciferase gene as the reporter gene. In order to improve experimental accuracy the plasmid pRL-CMV (Promega) was cotransfected. pRL-CMV contains the constitutive CMV promoter, controlling the expression of the Renilla reniformis luciferase. All Gal4 reporter gene assays were done in HEK293 cells (obtained from DSMZ, Braunschweig, Germany) grown in MEM with L-Glutamine and Earle's BSS supplemented with 10% fetal bovine serum, 0.1 mM nonessential amino acids, 1 mM sodium pyruvate, and 100 units Penicilin/[…] per mL at 37° C. in 5% CO2. Medium and supplements were obtained from Invitrogen. For the assay, […] cells were plated per well in 96 well plates in 100 μL per well MEM without Phenol Red and L-Glutamine and with Earle's BSS supplemented with 10% charcoal/dextran treated FBS (HyClone, South Logan, Utah), 0.1 mM nonessential amino acids, 2 mM glutamine, 1 mM sodium pyruvate, and 100 units Penicilin/[…] per mL, incubated at 37° C. in 5% CO2. The following day the cells were >90% confluence. Medium was removed and cells were transiently transfected using 20 μL per well of an OptiMEM-polyethylene-imine-based transfection-reagent (OptiMEM, Invitrogen; Polyethyleneimine, Aldrich Cat No. 40, 827-7) including the three plasmids described above. MEM with the same composition as used for plating cells was added 2-4 h after addition of transfection mixture. Then compound stocks, prediluted in MEM were added (final vehicle concentration not exceeding 0.1%). Cells were incubated for additional 16 h before firefly and renilla luciferase activities were measured sequentially in the same cell extract using a Dual-Light-Luciferase-Assay system (Dyer et al., Anal. Biochem. 2000, 282, 158-161). All experiments were done in triplicates.

[2] = molecular target: T2, human FXR alpha ligand binding domain (Homo sapiens, UniProt Q96RI1); assay: FRET activity assay (ligand mediated cofactor peptide interaction, LANCE); assay type: biochemical; details: GST-FXR-LBD / biotinylated SRC-1 peptide (676-700)
T2 construct: made in house; host or cells: E. coli BL21(DE3), vector pDEST15
T2 sequence (Q96RI1 187-472 isoform Q96RI1-2): T1 sequence (Q96RI1 187-472 isoform Q96RI1-2)
Method: Determination of a ligand mediated cofactor peptide interaction to quantify ligand binding to the nuclear receptor FXR was performed as follows.
Preparation of human FXR alpha ligand binding domain: The human FXRalpha LBD was expressed in E. coli strain BL21(DE3) as an N-terminally GST tagged fusion protein. The DNA encoding the FXR ligand binding domain was cloned into vector pDEST15 (Invitrogen). Expression was under control of an IPTG inducible T7 promoter. The amino acid boundaries of the ligand binding domain were amino acids 187-472 of Database entry NM_005123 (RefSeq). Expression and purification of the FXR-LBD: An overnight preculture of a transformed E. coli strain was diluted 1:20 in LB-Ampicillin medium and grown at 30° C. to an optical density of OD600=0.4-0.6. Gene expression was then induced by addition of 0.5 mM IPTG. Cells were incubated an additional 6 h at 30° C., 180 rpm. Cells were collected by centrifugation (7000×g, 7 min, rt). Per liter of original cell culture, cells were resuspended in 10 mL lysis buffer (50 mM Glucose, 50 mM Tris pH 7.9, 1 mM EDTA and 4 mg/mL lysozyme) and left on ice for 30 min. Cells were then subjected to sonication and cell debris removed via centrifugation (22000×g, 30 min, 4° C.). Per 10 mL of supernatant 0.5 mL prewashed Glutathione 4B sepharose slurry (Qiagen) was added and the suspension kept slowly rotating for 1 h at 4° C. Glutathione 4B sepharose beads were pelleted by centrifugation (2000×g, 15 sec, 4° C.) and washed twice in wash buffer (25 mM Tris, 50 mM KCl, 4 mM MgCl2 and 1M NaCl). The pellet was resuspended in 3 mL elution buffer per liter of original culture (elution buffer: 20 mM Tris, 60 mM KCl, 5 mM MgCl2 and 80 mM glutathione added immediately prior to use as powder). The suspension was left rotating for 15 min at 4° C., the beads pelleted and eluted again with half the volume of elution buffer than the first time. The eluates were pooled and dialysed overnight in 20 mM Hepes buffer (pH 7.5) containing 60 mM KCl, 5 mM MgCl2 as well as 1 mM dithiothreitol and 10% (v/v) glycerol. The protein was analysed by SDS-Page.
The method measures the ability of putative ligands to modulate the interaction between the purified bacterial expressed FXR ligand binding domain (LBD) and a synthetic biotinylated peptide based on residues 676-700 of SRC-1 (LCD2, 676-700). The sequence of the peptide used was B-[…]-COOH (SEQ ID NO: 1) where the N-terminus was biotinylated (B). The ligand binding domain (LBD) of FXR was expressed as fusion protein with GST in BL-21 cells using the vector pDEST15. Cells were lysed by sonication, and the fusion proteins purified over glutathione sepharose (Pharmacia) according to the manufacturers instructions. For screening of compounds for their influence on the FXR-peptide interaction, the Perkin Elmer LANCE technology was applied. This method relies on the binding dependent energy transfer from a donor to an acceptor fluorophor attached to the binding partner of interest. For ease of handling and reduction of background from compound fluorescence LANCE technology makes use of generic fluorophore labels and time resolved detection Assays were done in a final volume of 25 μL in a 384 well plate, in a Tris-based buffer (20 mM Tris-HCl pH 7.5; 60 mM KCl, 5 mM MgCl2; 35 ng/μL BSA), containing 20-60 ng/well recombinantly expressed FXR-LBD fused to GST, 200-600 nM N-terminally biotinylated peptide, representing SRC1 aminoacids 676-700, 200 ng/well Streptavidin-xlAPC conjugate (Prozyme) and 6-10 ng/well Eu W1024-antiGST (Perkin Elmer). DMSO content of the samples was kept at 1%. After generation of the assay mix and diluting the potentially FXR modulating ligands, the assay was equilibrated for 1 h in the dark at rt in FIA-plates black 384 well (Greiner). The LANCE signal was detected by a Perkin Elmer VICTOR2V™ Multilabel Counter. The results were visualized by plotting the ratio between the emitted light at 665 and 615 nm. […]

[3] = Plasma drug exposure in cynomolgus monkey after oral dosing; assay type: in vivo
Description: (§1) Each dosing group consisted of three male Cynomolgus monkeys.

FGF19 = assay: In vivo pharmacodynamics in cynomolgus monkey: plasma FGF19 (ELISA); details: oral
Description: as §1

Compound | EC50 [1] [nM] | EC50 [2] [nM] | Maximal AUC, compared between the two compounds ([3]; 300 mg/kg) | Plasma exposure with increasing doses ([3]; 3 to 300 mg/kg) | Plasma FGF19 response to increasing doses (FGF19; 3 to 300 mg/kg) | Plasma FGF19 Cmax (FGF19; highest dose (300 mg/kg)) [pg/mL]
O=C(O)c1ccnc(N2CC(O)(c3ccc(OCc4c(-c5ccc(F)cc5F)noc4C4CC4)cc3Cl)C2)c1 [Example 1, 2-(3-(2-chloro-4-((5-cyclopropyl-3-(2,4-difluorophenyl)isoxazol-4-yl)methoxy)phenyl)-3-hydroxyazetidin-1-yl)isonicotinic Acid] | 3000 | 263 |  |  |  | 
O=C(O)CNC(=O)c1cnc(N2CC(O)(c3ccc(OCc4c(-c5c(Cl)cc(F)cc5Cl)noc4C4CC4)cc3Cl)C2)c(F)c1 [Example 8, (6-(3-(2-chloro-4-((5-cyclopropyl-3-(2,6-dichloro-4-fluorophenyl)isoxazol-4-yl)methoxy)phenyl)-3-hydroxyazetidin-1-yl)-5-fluoronicotinoyl)glycine] | 1260 | 8.1 |  |  |  | 
O=C(O)c1ccnc(N2CC(O)(c3ccc(OCc4c(-c5c(Cl)cc(F)cc5Cl)noc4C4CC4)cc3Cl)C2)c1 [Example 2, 2-(3-(2-chloro-4-((5-cyclopropyl-3-(2,6-dichloro-4-fluorophenyl)isoxazol-4-yl)methoxy)phenyl)-3-hydroxyazetidin-1-yl)isonicotinic Acid] | 831 | 25 |  |  |  | 
O=C(O)c1cnc(N2CC(O)(c3ccc(OCc4c(-c5c(Cl)cc(F)cc5Cl)noc4C4CC4)cc3Cl)C2)c(F)c1 [Example 3, 6-(3-(2-chloro-4-((5-cyclopropyl-3-(2,6-dichloro-4-fluorophenyl)isoxazol-4-yl)methoxy)phenyl)-3-hydroxyazetidin-1-yl)-5-fluoronicotinic Acid] | 3.8 | 7.4 | comparable | Dose-dependent increases in plasma exposure | dose-dependently increased plasma FGF19 | 16000
O=C(O)c1cnc(N2CC(O)(c3ccc(OCc4c(C5CC5)cnn4-c4c(Cl)cc(F)cc4Cl)cc3Cl)C2)c(F)c1 [Example 5, 6-(3-(2-chloro-4-((4-cyclopropyl-1-(2,6-dichloro-4-fluorophenyl)-1H-pyrazol-5-yl)methoxy)phenyl)-3-hydroxyazetidin-1-yl)-5-fluoronicotinic Acid] | 8.6 | 18 |  |  |  | 
COc1ncc(C(=O)O)cc1[C@H]1C[C@](O)(c2ccc(OCc3c(-c4c(Cl)cc(F)cc4Cl)noc3C3CC3)cc2Cl)C1 [Example 6, 5-((1S,3S)-3-(2-chloro-4-((5-cyclopropyl-3-(2,6-dichloro-4-fluorophenyl)isoxazol-4-yl)methoxy)phenyl)-3-hydroxycyclobutyl)-6-methoxynicotinic Acid] | 353 | 49 |  |  |  | 
O=C(NCCS(=O)(=O)O)c1cnc(N2CC(O)(c3ccc(OCc4c(-c5c(Cl)cc(F)cc5Cl)noc4C4CC4)cc3Cl)C2)c(F)c1 [Example 7, 2-(6-(3-(2-chloro-4-((5-cyclopropyl-3-(2,6-dichloro-4-fluorophenyl)isoxazol-4-yl)methoxy)phenyl)-3-hydroxyazetidin-1-yl)-5-fluoronicotinamido)ethane-1-sulfonic Acid] | 1700 | 6.9 |  |  |  | 
Cc1onc(-c2c(Cl)cc(F)cc2Cl)c1COc1ccc(C2(O)CN(c3ncc(C(=O)O)cc3F)C2)c(Cl)c1 [Example 4, 6-(3-(2-chloro-4-((3-(2,6-dichloro-4-fluorophenyl)-5-methylisoxazol-4-yl)methoxy)phenyl)-3-hydroxyazetidin-1-yl)-5-fluoronicotinic Acid] | 176 | 35 |  |  |  | 
